In ChEMBL document CHEMBL1201862, “PubChem BioAssay data set” (2004):
Structures can show the parent of a compound that is named as a salt.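 Grown in 96-well plates, cells were treated for 48 hours with each compound at five concentrations. Insufficient inhibition: endpoint recorded as highest concentration tested. GI50: concentration for 50% inhibition of growth.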 Active and inactive are the calls of the source. No stated cut-off is given here; in the data, active = GI50 up to about 1.1 µM and inactive = higher.

Key:
Assay in all cases: NCI tumour cell line growth inhibition, 48 h
MOLT-4 = test system: MOLT-4
BT-549 = test system: BT-549
786-0 = test system: 786-0
CCRF-CEM = test system: CCRF-CEM
KM12 = test system: KM12
K562 = test system: K562
HCC 2998 = test system: HCC 2998
UACC-257 = test system: UACC-257
MDA-MB-231 = test system: MDA-MB-231
SNB-75 = test system: SNB-75
OVCAR-5 = test system: OVCAR-5
SF-268 = test system: SF-268
NCI-H226 = test system: NCI-H226
SF-539 = test system: SF-539
SN12C = test system: SN12C
HL-60 = test system: HL-60
MDA-N = test system: MDA-N
EKVX = test system: EKVX
Malme-3M = test system: Malme-3M
DMS-273 = test system: DMS-273

Row | Structure (SMILES) | GI50 (MOLT-4) | GI50 (BT-549) | GI50 (786-0) | GI50 (CCRF-CEM) | GI50 (KM12) | GI50 (K562) | GI50 (HCC 2998) | GI50 (UACC-257) | GI50 (MDA-MB-231) | GI50 (SNB-75) | GI50 (OVCAR-5) | GI50 (SF-268) | GI50 (NCI-H226) | GI50 (SF-539) | GI50 (SN12C) | GI50 (HL-60) | GI50 (MDA-N) | GI50 (EKVX) | GI50 (Malme-3M) | GI50 (DMS-273)
1 | COc1cc2c(OC)c(c1)CCCC1=CC(=O)C=C(CCC2)C1=O | 2.72 µM (inactive) | 33.3 µM (inactive) | 29 µM (inactive) | 3.09 µM (inactive) | 21.9 µM (inactive) | 14.6 µM (inactive) | 43.5 µM (inactive) | 35 µM (inactive) | 25.5 µM (inactive) | > 60.3 µM (inactive) | > 100 µM (inactive) | 37.8 µM (inactive) | > 100 µM (inactive) | 35.6 µM (inactive) | 20.8 µM (inactive) | 6.1 µM (inactive) | 15.2 µM (inactive) | 41.1 µM (inactive) | 10.4 µM (inactive) | 
2 | COc1cc(OCc2ccc3nc(OC)c(OC)nc3c2)cc(OC)c1OC | > 10 µM (inactive) | > 3.72 µM (inactive) | > 10 µM (inactive) | > 10 µM (inactive) | > 10 µM (inactive) | > 10 µM (inactive) | > 10 µM (inactive) | > 10 µM (inactive) | > 10 µM (inactive) | > 10 µM (inactive) | > 10 µM (inactive) | > 10 µM (inactive) | > 10 µM (inactive) | > 10 µM (inactive) | > 10 µM (inactive) | > 10 µM (inactive) | > 10 µM (inactive) | > 10 µM (inactive) | > 10 µM (inactive) | 
3 | C[C@]12CCC(=O)C=C1CC[C@@H]1C2CC[C@]2(C)c3nn(-c4ccc(F)cc4)nc3CC12 (stereo partly drawn) | > 100 µM (inactive) | > 100 µM (inactive) | 50.4 µM (inactive) | > 100 µM (inactive) | > 100 µM (inactive) | > 100 µM (inactive) | > 100 µM (inactive) | > 100 µM (inactive) | > 100 µM (inactive) | 38.1 µM (inactive) | > 100 µM (inactive) | > 100 µM (inactive) | > 100 µM (inactive) | > 100 µM (inactive) | > 100 µM (inactive) | > 100 µM (inactive) | > 100 µM (inactive) | > 100 µM (inactive) | > 100 µM (inactive) | 
4 | Cn1c(=O)c2[nH]cnc2n(CC(=O)O)c1=O | > 100 µM (inactive) |  | > 100 µM (inactive) | > 100 µM (inactive) | > 100 µM (inactive) | > 100 µM (inactive) |  |  |  | > 100 µM (inactive) | > 100 µM (inactive) | > 100 µM (inactive) | > 100 µM (inactive) | > 100 µM (inactive) | > 100 µM (inactive) |  |  | > 100 µM (inactive) | > 100 µM (inactive) | > 100 µM (inactive)
5 | C=C(C1=CC(=O)C(C)(C)O1)[C@@H]1CC=C([C@@H]2CC[C@H]3[C@@]2(C)CC[C@H]2C(C)(C)C(=O)[C@H](O)C[C@]32C)[C@H](O)O1 | 0.982 µM (active) | 5.38 µM (inactive) | 0.273 µM (active) | 0.729 µM (active) | 3.86 µM (inactive) | 1.71 µM (inactive) | 2.89 µM (inactive) | 1.97 µM (inactive) | 2.15 µM (inactive) | 10.6 µM (inactive) | 13.7 µM (inactive) | 1.88 µM (inactive) | 17.5 µM (inactive) | 1.34 µM (inactive) | 1.98 µM (inactive) | 2.24 µM (inactive) | 1.67 µM (inactive) | 10.1 µM (inactive) | 2.35 µM (inactive) | 
6 | Nc1nc(NCCO)c(N=O)c(=O)[nH]1 |  |  | > 100 µM (inactive) | > 100 µM (inactive) | > 100 µM (inactive) | > 100 µM (inactive) |  | > 100 µM (inactive) |  | > 100 µM (inactive) | > 100 µM (inactive) | > 100 µM (inactive) | > 100 µM (inactive) | > 100 µM (inactive) | > 100 µM (inactive) | > 100 µM (inactive) |  | > 100 µM (inactive) | > 100 µM (inactive) | > 100 µM (inactive)
7 | OCCN=C1c2ccccc2C2C(c3ccccc31)C1c3ccccc3C(=NCCO)c3ccccc3C21 (stereo not drawn) | 8.91 µM (inactive) | 23.6 µM (inactive) | 28.2 µM (inactive) | 11.6 µM (inactive) | 17.1 µM (inactive) | 12.6 µM (inactive) | 22.6 µM (inactive) | 24.7 µM (inactive) | 13.8 µM (inactive) | 20.4 µM (inactive) | 19.6 µM (inactive) | 23.2 µM (inactive) | < 0.01 µM (active) | 18 µM (inactive) | 18.6 µM (inactive) | 13.9 µM (inactive) | 15.6 µM (inactive) | 35.9 µM (inactive) | 32.4 µM (inactive) | 
8 | CCCC(=O)Nc1cc(C(=O)N2C[C@@H]3C[C@]34C2=CC(=O)c2[nH]cc(C)c24)n(COC)c1 | 0.807 µM (active) | 8.43 µM (inactive) | 5.47 µM (inactive) | 0.711 µM (active) | 8.85 µM (inactive) | 2.33 µM (inactive) | 3.28 µM (inactive) | 9.79 µM (inactive) | 8.53 µM (inactive) | 7.36 µM (inactive) | 34.4 µM (inactive) | 1.48 µM (inactive) | 11.2 µM (inactive) | 7.06 µM (inactive) | 10.6 µM (inactive) | 1.79 µM (inactive) | 8.65 µM (inactive) | 12.6 µM (inactive) | 2.59 µM (inactive) | 
9 | CO/C=C(/C(=O)OC)c1ccccc1COc1cccc(C(F)(F)F)c1 | 1.01 µM (active) | 6.28 µM (inactive) | 8.09 µM (inactive) | 0.489 µM (active) | 11.3 µM (inactive) | 3.76 µM (inactive) | 10.8 µM (inactive) | 0.676 µM (active) | 7.89 µM (inactive) | 7.01 µM (inactive) | > 100 µM (inactive) | 8.77 µM (inactive) | 1.89 µM (inactive) | 4.97 µM (inactive) | 8.28 µM (inactive) | < 0.01 µM (active) | 2.54 µM (inactive) | 3.56 µM (inactive) | 1.41 µM (inactive) | 
10 | Cc1ccc2ccc(O)cc2c1 | 22.6 µM (inactive) | 26.7 µM (inactive) | 76.2 µM (inactive) | 23.9 µM (inactive) | 28.4 µM (inactive) | 20.2 µM (inactive) | 18.2 µM (inactive) | 64.3 µM (inactive) | 30 µM (inactive) | 48.9 µM (inactive) | 55.8 µM (inactive) | 31.8 µM (inactive) | 39.3 µM (inactive) | 38.4 µM (inactive) | 94.6 µM (inactive) | 18.5 µM (inactive) | 20.1 µM (inactive) | 43.4 µM (inactive) | 48.2 µM (inactive) | 
11 | CCN(CC)C(=S)/N=C(\SC(=S)N(CC)CC)c1ccccc1 | 18.6 µM (inactive) | > 60.4 µM (inactive) | > 65 µM (inactive) | 0.787 µM (active) | 7.96 µM (inactive) | 1.29 µM (inactive) | 57.1 µM (inactive) | 45.7 µM (inactive) | 5.65 µM (inactive) | 24.1 µM (inactive) | > 80 µM (inactive) | 41.6 µM (inactive) | 28.5 µM (inactive) | 51.4 µM (inactive) | 48.6 µM (inactive) | 1.27 µM (inactive) | 15.7 µM (inactive) | 38.5 µM (inactive) | 22.4 µM (inactive) | 
12 | CCCNC(=S)NNC(=O)CSc1nc(-c2ccccc2)c(-c2ccccc2)[nH]1 | 24.2 µM (inactive) |  | 37 µM (inactive) | 38.1 µM (inactive) | 33 µM (inactive) |  |  | 45.6 µM (inactive) |  | 49.1 µM (inactive) | > 100 µM (inactive) | > 100 µM (inactive) | 91.6 µM (inactive) | 90.6 µM (inactive) | 74 µM (inactive) | 23.2 µM (inactive) |  | 37 µM (inactive) | 22.1 µM (inactive) | 34.8 µM (inactive)
13 | Cc1cc(C)nc(NS(=O)(=O)c2ccc(NC(=O)c3ccc(Cl)c4c(Nc5ccc(S(=O)(=O)Nc6nc(C)cc(C)n6)cc5)c5ccccc5nc34)cc2)n1 | 4.5 µM (inactive) |  | 5.18 µM (inactive) | 4.09 µM (inactive) | 21.8 µM (inactive) | 9.95 µM (inactive) |  | 27.7 µM (inactive) |  | 21.3 µM (inactive) | 15.7 µM (inactive) | 4.41 µM (inactive) |  | 2.22 µM (inactive) | 3.14 µM (inactive) | 3.15 µM (inactive) |  | 48.1 µM (inactive) | 14.4 µM (inactive) | 6.34 µM (inactive)
14 | O=[N+]([O-])c1ccc(N/N=C/c2ccc(OCCCCCCCCCCCO)cc2)c([N+](=O)[O-])c1 | 29.3 µM (inactive) | 5.94 µM (inactive) | 1.91 µM (inactive) | 3.91 µM (inactive) | 2.75 µM (inactive) | 1.15 µM (inactive) | 4.78 µM (inactive) | 4.91 µM (inactive) | 35.2 µM (inactive) | 1.94 µM (inactive) | 14.8 µM (inactive) | 2.84 µM (inactive) | 6.37 µM (inactive) | 1.97 µM (inactive) | 3.24 µM (inactive) | 5.56 µM (inactive) | 3.58 µM (inactive) | 17 µM (inactive) | 1.72 µM (inactive) | 
15 | COC(=O)C1=CO[C@@H](C)[C@@H]2Cn3ccc4c5ccccc5nc-4c3C[C@H]12 [ALSTONINE HYDROCHLORIDE] | 90.6 µM (inactive) |  | > 100 µM (inactive) | > 100 µM (inactive) |  | 55.2 µM (inactive) |  | > 100 µM (inactive) |  | > 100 µM (inactive) | > 100 µM (inactive) | > 100 µM (inactive) | > 100 µM (inactive) | > 100 µM (inactive) | > 100 µM (inactive) |  |  | > 100 µM (inactive) | > 100 µM (inactive) | > 100 µM (inactive)
